Publication PMC6240096, “A hPSC-based platform to discover gene-environment interactions that impact human β-cell and dopamine neuron survival” (Nature Communications, 2018)

Columns and labels:
MIN6 cells [1] = test: MIN6 cell survival inhibitory curve; type: cell-based, mouse; conditions: cell survival rate; read-out: IC50, MIN6 cell death
hESC-derived INS+ cells = test: Ki67 proliferation staining of hESC-derived INS+ cells; type: cell-based, human; conditions: 1.6 µM propargite vs DMSO
Procedure: Cells were fixed with 10% (v/v) formalin for 20 min at room temperature (RT) and blocked in a solution of Mg^2+- and Ca^2+-free PBS containing 5% horse serum and 0.3% Triton-X for 1 h at room temperature and followed by incubation with primary antibody at 4 °C overnight. The following primary antibodies and dilutions have been used in this study: goat anti-SOX17 (1:500, R&D system, AF1924), rabbit anti-FOXA2 (1:500, Upstate, 07-633), goat anti-PDX1 (1:500, R&D system, AF2419), mouse anti-NKX6.1 (1:100; BCBC, Ab2024), guinea pig anti-INS (1:1000, Dako, A0564), guinea pig anti-GLUCAGON (1:500, Linco, 4031), mouse anti-Ki67 (1:100, Life technologies, 556003), mouse anti-AMYLASE (1:100, Santa Cruz, sc-46657), rabbit anti-Active Caspase-3 (1:500, BD Bioscience, 559565), mouse anti-Troponin T (1:500, Thermo Scientific, MA5-12960), mouse anti-Actin, Cardiac (1:300, Sigma, A9357), rabbit anti-TUJ1 (1:500, Covance, MRB-435P), Chicken anti-MAP2 (1:1000, Abcam, Ab5392), mouse anti-HuC/D (1:500, Invitrogen, A-21271), mouse anti-MAP2 (1:1500, Sigma, M1406), rabbit anti-TH (1:500, Pel freeze, P40101-0), rat-anti-CTIP2 (1:500, Abcam, ab18465), goat anti-FOXA2 (1:200, R&D, 463783). Donkey anti-guinea pig, mouse, goat, rabbit or chicken secondary antibodies conjugated with Alexa-Fluor-488, Alexa-Fluor-594 or Alexa-Fluor-647 fluorophore (1:500, Life technologies) were used. […]

MIN6 cells [2] = test: Apoptosis analysis (Annexin V flow cytometry, active caspase-3 staining); type: cell-based, mouse; conditions: immunocytochemistry, 1.6 µM
Procedure: Cells were fixed with 10% (v/v) formalin for 20 min at room temperature (RT) and blocked in a solution of Mg^2+- and Ca^2+-free PBS containing 5% horse serum and 0.3% Triton-X for 1 h at room temperature and followed by incubation with primary antibody at 4 °C overnight. […]
Cells were dissociated by Accutase (Stem Cells) and washed with cold DPBS and then detected with FITC Annexin V Apoptosis Detection Kit I (BD Bioscience, 556547), and analyzed within 1 h by FACSVantage SE (Becton Dickinson). […]
cells. (b, c) Flow cytometry analysis (b) and quantification (c) of the percentage of […]
Etoposide was used as a positive control. Values presented as mean±S.D. (d, e) Immunocytochemistry analysis (d) and quantification (e) of the percentage of Active Caspase-3+ cells in 1.6 µM propargite treated MIN6 cells (n=3). […]

primary human islets = test: Primary human islets, INS and propidium iodide staining; type: cell-based; conditions: 4 days treatment
From the text: Fig. 1 A high-content screen identifies propargite as a compound that induces pancreatic β-cell death. a Scheme of pancreatic β-cell differentiation and high-content chemical screen. b Chemical structure of two hit compounds: Propargite and Vacor. c Inhibitory curve and IC50 of propargite or Vacor on INS^+ and INS^− cells (n = 8). d, e Immunocytochemistry analysis (d) and survival rate (e) of H1-derived glucose-responding INS^+ and INS^− cells treated with different doses of propargite (n = 8). Pancreatic β-like cells were stained for INS (green) and all cells were counterstained by DAPI (blue). Scale bars, 100 μm. The survival rate was calculated by dividing the average number of cells in propargite-treated conditions by the average number of cells in the DMSO control. f, g Representative live images (f) and fold-change (g) of INS^w/GFP HES3-derived INS-GFP^+ cells treated with 1.6 μM propargite or DMSO control at different time points compared to initial time 0 (n = 3). Scale bars, 100 μm. h, i, j Representative images (h) and cell survival rate (i) or cell death rate (j) of DMSO or propargite-treated human primary islets (n = 3). Pancreatic β-cells were stained with the INS antibody (green) and dead cells were stained with propidium iodide (PI) (red). Scale bars, 200 μm. Scale bars for higher resolution (Zoom) images, […]. Pancreatic β-cell death rate was calculated by defining percentages of INS^+ PI^+ cells in INS^+ cells, and non-β-cell death rate was calculated by percentages of INS^−PI^+ cells in INS^− cells.

2-(4-tert-butylphenoxy)-cyclohexyl prop-2-yne-1-sulfonate [propargite]
IC50 (MIN6 cells [1]): 1000 nM | percentage of Ki67+/INS+ cells (hESC-derived INS+ cells): did not affect | caspase-3 activation (MIN6 cells [2]): nor caspase-3 activation | number of INS+ cells in primary human islets (primary human islets): decreased | percentage of PI+/INS+ cells in INS+ cells (primary human islets): increased percentage
